Where a name gives a salt, the structure may show the parent alone. Where only a bound is given, the exact number is not on record here.

For this assay, the target named is T1, Nav1.7 (or SCN9A) channel (Homo sapiens, UniProt Q15858).
T1 construct: expressed in transfected cells
T1 sequence (Q15858 whole entry): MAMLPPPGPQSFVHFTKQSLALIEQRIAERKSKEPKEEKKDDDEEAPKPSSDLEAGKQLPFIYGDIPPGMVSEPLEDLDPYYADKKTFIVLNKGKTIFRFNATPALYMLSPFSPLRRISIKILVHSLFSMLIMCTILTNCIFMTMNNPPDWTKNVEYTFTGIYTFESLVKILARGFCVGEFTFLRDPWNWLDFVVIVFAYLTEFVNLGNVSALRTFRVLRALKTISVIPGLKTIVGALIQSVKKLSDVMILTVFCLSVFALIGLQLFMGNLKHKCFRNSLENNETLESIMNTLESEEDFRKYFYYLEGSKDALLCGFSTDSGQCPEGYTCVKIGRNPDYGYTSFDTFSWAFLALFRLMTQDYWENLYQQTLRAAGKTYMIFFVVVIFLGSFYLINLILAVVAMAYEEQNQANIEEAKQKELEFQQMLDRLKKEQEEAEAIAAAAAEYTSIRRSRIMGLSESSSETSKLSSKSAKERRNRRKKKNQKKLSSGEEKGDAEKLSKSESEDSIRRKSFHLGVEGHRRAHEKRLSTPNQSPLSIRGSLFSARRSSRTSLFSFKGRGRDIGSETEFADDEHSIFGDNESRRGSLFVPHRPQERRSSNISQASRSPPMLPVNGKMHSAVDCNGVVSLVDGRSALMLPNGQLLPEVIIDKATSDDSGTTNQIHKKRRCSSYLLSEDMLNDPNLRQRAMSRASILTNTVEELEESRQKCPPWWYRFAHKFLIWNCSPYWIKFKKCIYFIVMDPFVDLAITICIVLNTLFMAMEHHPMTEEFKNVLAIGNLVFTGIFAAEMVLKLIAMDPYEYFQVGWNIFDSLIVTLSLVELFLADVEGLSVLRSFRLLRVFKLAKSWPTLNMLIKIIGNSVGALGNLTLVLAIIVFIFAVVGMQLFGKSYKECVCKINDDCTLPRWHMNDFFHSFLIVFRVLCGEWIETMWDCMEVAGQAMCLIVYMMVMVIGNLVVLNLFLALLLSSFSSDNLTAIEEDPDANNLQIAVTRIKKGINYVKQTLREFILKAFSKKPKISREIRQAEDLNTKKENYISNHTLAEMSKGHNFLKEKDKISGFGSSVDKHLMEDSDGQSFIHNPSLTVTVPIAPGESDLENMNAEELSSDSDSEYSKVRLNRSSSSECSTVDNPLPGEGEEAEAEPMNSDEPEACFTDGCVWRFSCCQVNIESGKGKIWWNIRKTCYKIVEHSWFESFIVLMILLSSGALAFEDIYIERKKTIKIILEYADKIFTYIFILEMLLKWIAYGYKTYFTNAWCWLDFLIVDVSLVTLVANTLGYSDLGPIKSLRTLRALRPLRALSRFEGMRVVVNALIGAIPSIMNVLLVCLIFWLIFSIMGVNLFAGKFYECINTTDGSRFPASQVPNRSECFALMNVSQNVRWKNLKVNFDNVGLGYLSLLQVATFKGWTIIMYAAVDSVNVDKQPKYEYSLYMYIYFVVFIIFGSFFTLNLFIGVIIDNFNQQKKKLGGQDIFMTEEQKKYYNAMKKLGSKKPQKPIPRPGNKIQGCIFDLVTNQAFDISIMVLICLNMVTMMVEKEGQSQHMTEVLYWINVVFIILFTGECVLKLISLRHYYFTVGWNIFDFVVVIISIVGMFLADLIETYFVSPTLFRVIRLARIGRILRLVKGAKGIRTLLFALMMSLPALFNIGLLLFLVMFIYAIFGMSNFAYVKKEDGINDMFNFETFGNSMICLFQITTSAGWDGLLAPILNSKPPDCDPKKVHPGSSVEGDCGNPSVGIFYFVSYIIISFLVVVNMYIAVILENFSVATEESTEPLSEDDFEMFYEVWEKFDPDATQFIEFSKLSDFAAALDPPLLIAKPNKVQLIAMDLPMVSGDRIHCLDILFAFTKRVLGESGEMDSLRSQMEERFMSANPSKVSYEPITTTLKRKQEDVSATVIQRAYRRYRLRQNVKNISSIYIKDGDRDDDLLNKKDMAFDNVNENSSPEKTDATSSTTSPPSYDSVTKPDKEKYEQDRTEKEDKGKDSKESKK
The assay is described as follows: Nav1.7 (hSCN9A) electrophysiology assay, PatchXpress platform. Format: cell-based. The note with it: estimated IC50 from single point electrophysiology data, HEK cells stably expressing hSCN9A, held at V1/2 of inactivation, read-out: Nav1.7 EIC50. As for the experimental part: The ability of the compounds of formula (I) to block the Nav1.7 (or SCN9A) channel were measured using the assay described below.
Human Embryonic Kidney (HEK) cells were transfected with an hSCN9A construct using lipofectamine reagent (Invitrogen), using standard techniques. Cells stably expressing the hSCN9A constructs were identified by their resistance to G-418 (400 μg/ml). Clones were screened for expression using the whole-cell voltage-clamp technique.
HEK cells stably transfected with hSCN9A were maintained in DMEM medium supplemented with 10% heat-inactivated fetal bovine serum and 400 μg/ml G-418 in an incubator at 37° C. with a humidified atmosphere of 10% CO2. For HTS, cells were harvested from flasks by trypsinization and replated in an appropriate multi-well plate (typically 96 or 384 wells/plate) such that confluence would be achieved within 24 hours of plating. For electrophysiological studies, cells were removed from the culture flask by brief trypsinization and re-plated at low density onto glass cover slips. Cells were typically used for electrophysiological experiments within 24 to 72 hours after plating.
Cover slips containing HEK cells expressing hSCN9A were placed in a bath on the stage of an inverted microscope and perfused (approximately 1 ml/minutes) with extracellular solution of the following composition: 138 mM NaCl, 2 mM CaCl2, 5.4 mM KCl, 1 mM MgCl2, 10 mM glucose, and 10 mM HEPES, pH 7.4, with NaOH. […] The osmolarity of the extracellular and intracellular solutions was 300 mOsm/kg and 295 mOsm/kg, respectively. All recordings were made at room temperature (22-24° C.) using AXOPATCH 200B amplifiers and PCLAMP software (Axon Instruments, Burlingame, Calif.).
hSCN9A currents in HEK cells were measured using the whole-cell configuration of the patch-clamp technique (Hamill et al., 1981). Uncompensated series resistance was typically 2 to 5 mega ohms and >85% series resistance compensation was routinely achieved. […] Current records were acquired at 20 to 50 KHz and filtered at 5 to 10 KHz.
HEK cells stably transfected with hSCN9A were viewed under Hoffman contrast optics and placed in front of an array of flow pipes emitting either control or compound-containing extracellular solutions. All compounds were dissolved in dimethyl sulfoxide to make 10 mM stock solutions, which were then diluted into extracellular solution to attain the final concentrations desired. […] The voltage-dependence of inactivation was determined by applying a series of depolarizing prepulses (8 sec long in 10 mV increments) from a negative holding potential. The voltage was then immediately stepped to 0 mV to assess the magnitude of the sodium current. Currents elicited at 0 mV were plotted as a function of prepulse potential to allow estimation of the voltage at which 50% of the channels were inactivated (midpoint of inactivation or V1/2). Compounds were tested for their ability to inhibit hSCN9A sodium channels by activating the channel with a 20 msec voltage step to 0 mV following an 8 second conditioning prepulse to the empirically determined V1/2. Compound effect (% inhibition) was determined by difference in current amplitude before and after application of test compounds. […] Inhibition values <20% and >80% were excluded from the calculation.
Electrophysiological assays were conducted with PatchXpress 7000 hardware and associated software (Molecular Devices Corp). All assay buffers and solutions were identical to those used in conventional whole-cell voltage clamp experiments described above. hSCN9A cells were grown as above to 50%-80% confluency and harvested by trypsinization. Trypsinized cells were washed and resuspended in extracellular buffer at a concentration of 1×10^6 cells/ml. The onboard liquid handling facility of the PatchXpress was used for dispensing cells and application of test compounds.
Consider `CS(=O)(=O)NC(=O)c1cc(Cl)c(COc2ccc(Cl)c(Cl)c2)cc1F` [Example 1, 5-Chloro-4-[(3,4-dichlorophenoxy)methyl]-2-fluoro-N-(methylsulfonyl)benzamide], for which the IC50 was 9.5 nM. As to `CS(=O)(=O)NC(=O)c1cc(F)c(COc2ccc(C(F)(F)F)c(Cl)c2)cc1F` [Example 2, 4-{[3-Chloro-4-(trifluoromethyl)phenoxy]methyl}-2,5-difluoro-N-(methylsulfonyl)benzamide], the IC50 is 64 nM. With `CS(=O)(=O)NC(=O)c1ccc(OCc2ccc(Cl)c(Cl)c2)cc1` [Example 3] the figure was 290 nM; with `Cn1nc(C(F)(F)F)cc1-c1ccc(OCc2ccc(C(=O)NS(C)(=O)=O)cc2)cc1` [Example 4, N-(Methylsulfonyl)-4-({4-[1-methyl-3-(trifluoromethyl)-1H-pyrazol-5-yl]phenoxy}methyl)benzamide diethylamine salt], 1200 nM. With `CS(=O)(=O)NC(=O)c1ccc(OCc2cccc3ccccc23)c(C#N)c1` [Example 5, 3-Cyano-N-(methylsulfonyl)-4-(1-naphthylmethoxy)benzamide], the IC50 was 1700 nM.

On to `CS(=O)(=O)NC(=O)c1ccc(OCc2ccccc2OC(F)(F)F)c(Cl)c1` [Example 6, 3-Chloro-N-(methylsulfonyl)-4-{[2-(trifluoromethoxy)benzyl]oxy}benzamide], for which the IC50 was 1300 nM. Consider `COc1cccc(OCc2ccc(C(=O)NS(C)(=O)=O)cc2)c1` [Example 8, 4-[(3-Methoxyphenoxy)methyl]-Nethylsulfonyl)benzamide diethylamine salt], for which the IC50 was 6900 nM. With `CS(=O)(=O)NC(=O)c1cc(F)c(OCc2ccc(Cl)c(Cl)c2)cc1F` [Example 9, 4-[(3,4-Dichlorobenzyl)oxy]-2,5-difluoro-N-(methylsulfonyl)benzamide] the figure was 670 nM; with `CS(=O)(=O)NC(=O)c1cc(F)c(OCc2ccc(C(F)(F)F)c(Cl)c2)cc1F` [Example 10, 4-(3-Chloro-4-(trifluoromethyl)benzyloxy)-2,5-difluoro-N-(methylsulfonyl)benzamide], 1500 nM.

With `COc1cc(OCc2ccc(Cl)c(Cl)c2)ccc1C(=O)NS(C)(=O)=O` [Example 12, 4-[(3,4-Dichlorobenzyl)oxy]-2-methoxy-N-(methylsulfonyl)benzamide], the IC50 is 12000 nM. Regarding `COc1ccccc1OCc1cc(F)c(C(=O)NS(C)(=O)=O)cc1F` [Example 14, 2,5-Difluoro-4-((2-methoxyphenoxy)methyl)-N-(methylsulfonyl)benzamide], the IC50 was 8100 nM.

`COc1cc(Cl)ccc1OCc1cc(F)c(C(=O)NS(C)(=O)=O)cc1F` [Example 15, 4-((4-Chloro-2-methoxyphenoxy)methyl)-2,5-difluoro-N-(methylsulfonyl)benzamide Diethylamine salt]: the IC50 was 1700 nM.

For the compound `CS(=O)(=O)NC(=O)c1ccc(COc2cccc(Cl)c2)cc1` [Example 16, 4-((3-Chlorophenoxy)methyl)-N-(methylsulfonyl)benzamide Diethylamine salt], the IC50 is 760 nM. With `CS(=O)(=O)NC(=O)c1ccc(COc2ccc(C#N)cc2)cc1` [Example 17, 4-((4-Cyanophenoxy)methyl)-N-(methylsulfonyl)benzamide] the figure was 8400 nM; with `CS(=O)(=O)NC(=O)c1ccc(COc2ccc(Cl)cc2)cc1` [Example 18, 4-((4-Chlorophenoxy)methyl)-N-(methylsulfonyl)benzamide Diethylamine salt], 930 nM. The result for `COc1cc(C(=O)NS(C)(=O)=O)ccc1COc1ccc(Cl)c(Cl)c1` [Example 19, 4-((3,4-Dichlorophenoxy)methyl)-3-methoxy-N-(methylsulfonyl)benzamide] reads 58 nM; that for `CS(=O)(=O)NC(=O)c1ccc(OCc2ccccc2)cc1` [Example 20, 4-(Benzyloxy)-N-(methylsulfonyl)benzamide Diethylamine salt], 2400 nM.

`CS(=O)(=O)NC(=O)c1ccc(OCc2cccc(Br)c2)cc1` [Example 21, 4-(3-Bromobenzyloxy)-N-(methylsulfonyl)benzamide]: the IC50 is 710 nM. The result for `Cc1nccn1-c1ccc(COc2ccc(C(=O)NS(C)(=O)=O)cc2)cc1` [Example 22, 4-(4-(2-methyl-1H-imidazol-1-yl)benzyloxy)-N-(methylsulfonyl)benzamide] reads greater than 3000 nM. The result for `CCC(C)S(=O)(=O)NC(=O)c1cc(F)c(COc2ccc(Cl)c(Cl)c2)cc1F` (centres unmarked) [Example 23, N-(sec-Butylsulfonyl)-4-((3,4-dichlorophenoxy)methyl)-2,5-difluorobenzamide] reads 380 nM. The result for `CS(=O)(=O)NC(=O)c1ccc(COc2ccc(Cl)cc2Cl)cc1` [Example 24, 4-((2,4-Dichlorophenoxy)methyl)-N-(methylsulfonyl)benzamide Diethylamine salt] reads 780 nM; that for `CCc1ccc(OCc2ccc(C(=O)NS(C)(=O)=O)cc2)cc1` [Example 25, 4-((4-Ethylphenoxy)methyl)-N-(methylsulfonyl)benzamide Diethylamine salt], 720 nM; that for `CS(=O)(=O)NC(=O)c1ccc(COc2ccc(C(F)(F)F)cc2-c2ccnnc2)cc1` [Example 26, N-(methylsulfonyl)-4-{[2-pyridazin-4-yl-4-(trifluoromethyl)phenoxy]methyl}benzamide], 78 nM. In the case of `CS(=O)(=O)NC(=O)c1ccc(COc2ccc(Cl)c(C(F)(F)F)c2)cc1` [Example 27, 4-{[4-Chloro-3-(trifluoromethyl)phenoxy]methyl}-N-(methylsulfonyl)benzamide], the IC50 is 380 nM. With `CS(=O)(=O)NC(=O)c1ccc(COc2ccc(Cl)c(Cl)c2)cc1` [Example 28, 4-[(3,4-Dichlorophenoxy)methyl]-N-(methylsulfonyl)benzamide] the figure was 58 nM.

Turning to `CS(=O)(=O)NC(=O)c1ccc(COc2ccc(Cl)c(Cl)c2)c(Cl)c1` [Example 29, 3-Chloro-4-((3,4-dichlorophenoxy)methyl)-N-(methylsulfonyl)benzamide Diethylamine salt], the IC50 is 86 nM. With `COc1cc(COc2ccc(Cl)c(Cl)c2)ccc1C(=O)NS(C)(=O)=O` [Example 30, 4-[(3,4-Dichlorophenoxy)methyl]-2-methoxy-N-(methylsulfonyl)benzamide] the figure was 1900 nM; with `COc1ccccc1OCc1ccc(C(=O)NS(C)(=O)=O)cc1` [Example 34, 4-[(2-Methoxyphenoxy)methyl]-N-(methylsulfonyl)benzamide], 8500 nM; with `CS(=O)(=O)NC(=O)c1ccc(COc2cccc(C3CCNCC3)c2)cc1` [Example 35, N-(Methylsulfonyl)-4-[(3-piperidin-4-ylphenoxy)methyl]benzamide], greater than 3000 nM. The result for `CS(=O)(=O)NC(=O)c1ccc(COc2ccc(C3CCNCC3)cc2)cc1` [Example 36, N-(methylsulfonyl)-4-[(4-piperidin-4-ylphenoxy)methyl]benzamide diethylamine salt] reads greater than 3000 nM; that for `Cn1nccc1-c1ccc(OCc2ccc(C(=O)NS(C)(=O)=O)cc2)cc1` [Example 37, 4-{[4-(1-Methyl-1H-pyrazol-5-yl)phenoxy]methyl}-N-(methylsulfonyl)benzamide diethylamine salt], greater than 3000 nM; that for `Cn1nccc1-c1cc(Cl)ccc1OCc1ccc(C(=O)NS(C)(=O)=O)cc1` [Example 38, 4-{[4-Chloro-2-(1-methyl-1H-pyrazol-5-yl)phenoxy]methyl}-N-(methylsulfonyl)benzamide diethylamine salt], greater than 3000 nM.

Values taken from US9096500B2, “Acyl sulfonamide compounds” (Pfizer Limited, priority 2010, dated 2015).
